Where a SMILES comes first, the peptide text is derived from it. Bridges are numbered along the chain shown (N, C = ends). [ ]: non-standard residue; d: D form. Aib = CC(C)(N)C(=O)O
How the values were obtained:
[1] = molecular target: T1, hGLP-1R (Homo sapiens, UniProt P43220); assay: hGLP-1R-mediated cAMP induction assay in CHO cell line; assay type: cell-based; details: Table 3; against native GLP-1;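 also: CHO cells expressing human GLP-1R, treated 30 min at 37 °C, intracellular cAMP measured by competitive fluorescent immunoassay and converted via a cAMP standard curve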
T1 construct: expressed in transfected cells; host or cells: CHO
Text: The cAMP in the sample or standard competes with horseradish peroxidase (HRP)-labeled cAMP conjugate for binding sites on the anti-cAMP antibodies. In the absence of cAMP, most of the HRP-cAMP conjugate is bound to the antibody. Increasing concentrations of cAMP competitively decrease the amount of bound conjugate, thus decreasing measured HRP activity.
Assay kit: CatchPoint™ Cyclic-AMP Fluorescent Assay Kit (Molecular Devices, Product # R8088)
Cell lines: CHO hGLP1R, CHO hGIPR
Cell seeding: CHO hGLP1R or CHO hGIPR cells: 10,000 cells/well/100 uL at 37° C. 5% CO2 overnight.
Gently aspirate off media and wash the cells with KRBG Buffer, 100 uL/well.
Incubate the plate for 10 min at room temperature. Then add the KRBG buffer with 3× final concentration of the tested samples (5-foled series diluted from 5,000 nM), 50 uL/well. Incubate the plate at 37° C. 5% CO2 for 30 min.
Add 50 uL of Lysis buffer to each well and put the plate on a shaker for 10 min.
Place 40 uL of samples and analyze in appropriate wells. And test the cAMP concentration in each sample by following the manufacture's instruction.
Detect the fluorescence signal at Ex: 490 nm and Em: 530 nm. Transfer the FI signal to cAMP concentration by the cAMP standard curve. The Dose-response curve and EC50 were obtained by logistic fitting of Origin 8.

[2] = molecular target: T2, hGIPR (Homo sapiens, UniProt P48546); assay: hGIPR-mediated cAMP induction assay in CHO cell line; assay type: cell-based; details: Table 3; against native GIP
T2 construct: expressed in transfected cells; host or cells: CHO
T2 sequence (P48546 22-466): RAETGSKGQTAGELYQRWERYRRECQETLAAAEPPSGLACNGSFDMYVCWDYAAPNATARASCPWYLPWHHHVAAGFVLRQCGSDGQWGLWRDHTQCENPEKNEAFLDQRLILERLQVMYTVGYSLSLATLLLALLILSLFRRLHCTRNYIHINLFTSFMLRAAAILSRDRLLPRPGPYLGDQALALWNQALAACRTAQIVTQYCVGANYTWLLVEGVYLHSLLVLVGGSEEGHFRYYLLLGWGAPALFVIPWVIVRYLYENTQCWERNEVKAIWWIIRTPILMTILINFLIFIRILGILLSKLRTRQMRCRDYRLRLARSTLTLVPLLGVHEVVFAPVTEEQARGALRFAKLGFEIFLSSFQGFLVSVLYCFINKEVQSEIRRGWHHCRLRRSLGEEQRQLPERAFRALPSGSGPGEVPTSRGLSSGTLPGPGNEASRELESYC

T1 sequence (P43220 24-463): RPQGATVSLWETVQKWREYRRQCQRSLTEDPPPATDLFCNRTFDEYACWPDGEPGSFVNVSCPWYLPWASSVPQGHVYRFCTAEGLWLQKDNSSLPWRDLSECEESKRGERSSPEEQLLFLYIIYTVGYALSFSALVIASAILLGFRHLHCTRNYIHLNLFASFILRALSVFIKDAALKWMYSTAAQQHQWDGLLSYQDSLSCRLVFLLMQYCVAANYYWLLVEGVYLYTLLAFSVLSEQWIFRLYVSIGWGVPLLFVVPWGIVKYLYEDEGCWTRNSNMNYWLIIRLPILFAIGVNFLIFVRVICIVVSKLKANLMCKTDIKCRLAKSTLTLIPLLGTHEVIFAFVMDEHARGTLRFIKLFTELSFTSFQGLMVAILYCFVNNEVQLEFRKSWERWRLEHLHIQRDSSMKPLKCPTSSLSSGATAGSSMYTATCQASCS

For `CC[C@H](C)[C@H](NC(=O)[C@H](Cc1ccccc1)NC(=O)[C@H](CCC(=O)O)NC(=O)[C@H](CCCNC(=N)N)NC(=O)[C@@H](NC(=O)[C@H](C)NC(=O)[C@H](CCC(=O)O)NC(=O)[C@@H]1CCCCNC(=O)CC[C@H](NC(=O)[C@H](CO)NC(=O)[C@H](Cc2ccc(O)cc2)NC(=O)[C@H](CC(=O)O)NC(=O)[C@H](CO)NC(=O)[C@@H](NC(=O)[C@H](Cc2ccccc2)NC(=O)[C@@H](NC(=O)CNC(=O)[C@H](CCC(=O)O)NC(=O)C(C)(C)NC(=O)[C@@H](N)Cc2ccc(O)cc2)[C@@H](C)O)[C@@H](C)O)C(=O)N[C@@H](Cc2ccc(O)cc2)C(=O)N[C@@H](CCSC)C(=O)N[C@@H](CCC(=O)O)C(=O)N1)C(C)C)C(=O)N[C@@H](C)C(=O)N[C@@H](Cc1c[nH]c2ccccc12)C(=O)N[C@@H](CC(C)C)C(=O)N[C@H](C(=O)N[C@@H](CCCCN)C(=O)NCC(N)=O)C(C)C` [Compound 052-2] (H-Y[Aib]EGTFTSDYSEYMEKEAVREFIAWLVKG-NH2; lactam 12-16), the “GLP-1 Receptor Relative Potency” value [1] was 132.8 and the “GIP Receptor Relative Potency” value [2] was 146.8.

— US9453062B2, “Glucose dependent insulinotropic polypeptide analogs, pharmaceutical compositions and use thereof” (Beijing Hanmi Pharmaceutical Co., Ltd., priority 2011, dated 2016)
